Laboratory results from article PMC9457610, “Synthesis of thia-Michael-Type Adducts between Naphthoquinones and N-Acetyl-L-Cysteine and Their Biological Activity” (Molecules, 2022).

How the values were obtained:
[1] = test system: SH-SY5Y; test: MTT cell viability assay, SH-SY5Y; assay type: cell-based; details: Homo sapiens, 48 h treatment, 0.01 to 200 μM, ± SD, n.a. = not active
Experimental: (§1) Molecules 8–12 were tested in vitro using the MTT assay against four cancer cell lines: HeLa, SH-SY5Y, SaOS2, and U2OS. […] Cytotoxic activities were expressed as IC50 values, i.e., the concentration of the substance that reduced cell viability by 50% (Table 2).
(§2) HeLa, SH-SY5Y, SaOS2, U2OS, and HDFa cell lines were purchased from American Type Culture Collection (ATCC; Manassas, VA, USA). HeLa, SaOS2, and U2OS cells were cultured in RPMI 1640 medium (Labtek Eurobio, Milan, Italy), while SH-SY5Y and HDFa cells were cultured in high-glucose DMEM (Labtek Eurobio, Milan, Italy), and both were supplemented with 10% FCS (Euroclone, Milan, Italy) and 2mM L-glutamine (Sigma-Aldrich, Milan, Italy), at 37 °C in a 5% CO2 atmosphere. The compounds were dissolved in DMSO in a 30–50 mM stock solution. In cell treatments, the final DMSO concentration never exceeded 0.1%.
(§3) Cells were seeded at 1.5 × 10^4 cells/well in a 96-well culture plastic plate (Orange Scientific, Braine-l’Alleud, Belgium), and after 24 h of growth, they were exposed to increasing concentrations of compounds (from 0.01 to 200 μM) solubilized in RPMI 1640 medium. After 48 h of treatment, the culture medium was replaced with 0.1 mL of 3-(4,5-dimethylthiazolyl-2)-2,5-diphenyltetrazolium bromide (MTT; Sigma-Aldrich, Milan, Italy) dissolved in PBS at the concentration of 0.2 mg/mL, and samples were incubated for 2 h at 37 °C. The formazan salt crystals formed were dissolved with 0.2 mL of isopropyl alcohol for 20 min. The absorbance at 570 nm was measured using a multi-well plate reader (Tecan, Männedorf, Switzerland), and data were analyzed using Prism GraphPad software and expressed as IC50.

[2] = test system: HeLa, SH-SY5Y, SaOS2, and U2OS; test: MTT cell viability assay, all malignant cell lines tested (summary); assay type: cell-based, human; details: summary over HeLa, 48 h; for IC50: Homo sapiens, read-out: IC50 values against all the malignant cell lines tested
Experimental: as §1, §2, §3

[3] = test system: HeLa cells; test: Intracellular ROS level (DCFDA), HeLa; assay type: cell-based, human
Experimental: (§4) To further explore and establish a direct relationship between 8 or 11 and ROS, DCFH-DA staining was applied to HeLa, U2OS, and SH-SY5Y cells treated for 1 h and 48 h. […] Indeed, in HeLa cells, 8 induced an increase in ROS formation of 1.14 ± 0.042, while in U2OS and SH-SY5Y cells, the increases were 1.30 ± 0.13-fold and 1.51 ± 0.16-fold with respect to control, with p < 0.0001, p < 0.0005, and p < 0.0024, respectively. In the same way, 11 induced increases in ROS formation in HeLa cells of 1.27 ± 0.16, while in U2OS and SH-SY5Y cells, the increases were 1.62 ± 0.11-fold and 1.61 ± 0.14-fold with respect to control, with p < 0.0049, p < 0.0001, and p < 0.0056, respectively. Moreover, it is important to note that both compounds 8 and 11 induced a greater formation of ROS in U2OS and SH-SY5Y cells than in HeLa cells, as shown in Figure 5A.
(§5) Oxidative stress was measured in intact cells using an ROS indicator, 2′,7′-dichlorodihydrofluorescein diacetate (DCFDA; Thermo Fisher Scientific, Waltham, MA, USA). HeLa, U2OS, and SH-SY5Y cells were seeded in 96-well plates at 1.5 × 10^4 cells/well (Optiplate, Perkin Elmer, Milan, Italy), and after 24 h to allow adhesion, HeLa and SH-SY5Y cells were incubated with 5 μM GA 462 or 20 μM SM71, while U2OS were treated with 5 μM 8 or 30 μM 11, dissolved in complete medium for 1 or 48 h at 37 °C in 5% CO2 atmosphere. After this time, cells were washed with PBS and treated with 10 μM DCFDA in culture medium for 30 min. Finally, cells were washed again with PBS and the fluorescence value in each well was measured (λexc = 488 nm; λem = 530 nm) with a plate reader (Tecan, Männedorf, Switzerland). Fluorescence emission was normalized to protein content measured using the Bradford method.

[4] = test system: U2OS cells; test: Cell-cycle analysis (PI stain, flow cytometry), U2OS; assay type: cell-based, human; details: 5 μM
Experimental: (§6) For this reason, we decided to analyze the effects on proliferation by treating the cells only with 8. Next, we explored the effect of 5 μM 8 on cell-cycle distribution in HeLa, U2OS, and SH-SY5Y cancer cells using PI stain followed by flow cytometry. Cells were exposed to the compound for 24 or 48 h prior to processing and analysis.
(§7) The effects on the HeLa and U2OS cell cycles were studied after 24 or 48 h of treatment with 5 μM 8. Cells were detached with 0.11% trypsin, washed in PBS and centrifuged. The pellet was resuspended in 0.01% Nonidet P-40, 10 μg/mL RNase, 0.1% sodium citrate, and 50 μg/mL PI, for 30 min at room temperature in the dark. Flow cytometric analyses were performed as previously described.

[5] = test system: SH-SY5Y cells; test: Cell-cycle analysis (PI stain, flow cytometry), SH-SY5Y; assay type: cell-based, human; details: 5 μM
Experimental: as §6, §7

[6] = test system: HeLa; test: MTT cell viability assay, HeLa; assay type: cell-based; details: Homo sapiens, 48 h treatment, 0.01 to 200 μM, ± SD, n.a. = not active
Experimental: as §1, §2, §3

[7] = test system: HeLa cells; test: Cell-cycle analysis (PI stain, flow cytometry), HeLa; assay type: cell-based, human; details: 5 μM
Experimental: as §6, §7

[8] = test system: SH-SY5Y cells; test: Intracellular ROS level (DCFDA), SH-SY5Y; assay type: cell-based, human; details: for increase in ROS formation with respect to control: 1 h, 5 μM 8 (GA 462) or 20 μM 11 (SM71); for ROS production: 48 h, 5 μM 8 or 20 μM 11
Experimental: as §4, §5

[9] = test system: U2OS cells; test: Intracellular ROS level (DCFDA), U2OS; assay type: cell-based, human; details: 5 μM 8 or 30 μM 11; for increase in ROS formation with respect to control: 1 h; for ROS production: 48 h
Experimental: as §4, §5

[10] = test system: HDFa; test: MTT cell viability assay, normal cell line HDFa; assay type: cell-based; details: Homo sapiens, normal dermal fibroblast, 48 h treatment, ± SD
Experimental: as §1, §2, §3

[11] = test system: SaOS2; test: MTT cell viability assay, SaOS2; assay type: cell-based; details: Homo sapiens, SAOS-2, 48 h treatment, 0.01 to 200 μM, ± SD, n.a. = not active
Experimental: as §1, §2, §3

[12] = test system: U2OS; test: MTT cell viability assay, U2OS; assay type: cell-based; details: Homo sapiens, 48 h treatment, 0.01 to 200 μM, ± SD, n.a. = not active
Experimental: as §1, §2, §3

[13] = 1 h, 5 μM 8 (GA 462) or 20 μM 11 (SM71)

| Structure (SMILES) | IC50 [1] | IC50 [2] | increase in ROS formation with respect to control [3, 13] | increase in ROS formation with respect to control ([3]; 48 h, 5 μM 8) | increase in S-phase cells with respect to control ([4]; 24 h) | accumulation of cells in the S phase with respect to control ([4]; 48 h) | increase in S-phase cells with respect to control ([5]; 24 h) | accumulation of cells in the S phase with respect to control ([5]; 48 h) | IC50 [6] | increase in the number of G0/G1-phase cells with respect to control ([7]; 24 h) | increase in the number of cells in the S phase with respect to control ([7]; 48 h) | increase in ROS formation with respect to control [8] | ROS production [8] | increase in ROS formation with respect to control [9] | ROS production [9] | IC50 [10] | IC50 [11] | IC50 [12] | melting point | IC50 values against all the malignant cell lines tested [2] |
| --- | --- | --- | --- | --- | --- | --- | --- | --- | --- | --- | --- | --- | --- | --- | --- | --- | --- | --- | --- | --- |
| CC(=O)N[C@@H](CSC1=CC(=O)c2ccccc2C1=O)C(=O)O [Compound 8, N-acetyl-S-(1,4-dioxo-1,4-dihydronaphthalen-2-yl)-L-cysteine] | 870 ± 3 nM | 500 to 1810 nM | 1.14 ± 0.042 fold | 2.28 ± 0.47 fold | 1.3% | 1.1% | 1.1% | 1.3% | 540 ± 50 nM | 1.3% | 1.2% | 1.51 ± 0.16 fold | no ROS production | 1.30 ± 0.13 fold | no ROS production | 7430 ± 20 nM | 1670 ± 10 nM | 1810 ± 7 nM |  |  |
| CC(=O)N[C@@H](CSC1=CC(=O)c2c(O)cccc2C1=O)C(=O)O [Compound 11, N-acetyl-S-(5-hydroxy-1,4-dioxo-1,4-dihydronaphthalen-2-yl)-L-cysteine] | 11400 ± 1 nM |  | 1.27 ± 0.16 fold |  |  |  |  |  | 13200 ± 50 nM |  |  | 1.61 ± 0.14 fold | no ROS production | 1.62 ± 0.11 fold | no ROS production | 6880 ± 50 nM | 25900 ± 50 nM | 30400 ± 5 nM | 209.8 to 211.7 °C |  |
| CC(=O)N[C@@H](CSC1=C(C)C(=O)c2ccccc2C1=O)C(=O)O [Compound 9, N-acetyl-S-(3-methyl-1,4-dioxo-1,4-dihydronaphthalen-2-yl)-L-cysteine] | 960 ± 60 nM | 500 to 1810 nM |  |  |  |  |  |  | 500 ± 80 nM |  |  |  |  |  |  | 3870 ± 10 nM | 590 ± 40 nM | 510 ± 60 nM | 206.9 to 208.3 °C |  |
| CC(=O)N[C@@H](CSC1=CC(=O)c2c(O)ccc(O)c2C1=O)C(=O)O [Compound 12, N-acetyl-S-(5,8-dihydroxy-1,4-dioxo-1,4-dihydronaphtalen-2-yl)-L-cysteine] | 630 ± 40 nM | 500 to 1810 nM |  |  |  |  |  |  | 1040 ± 8 nM |  |  |  |  |  |  | 830 ± 7 nM | 1560 ± 30 nM | 1650 ± 30 nM | 238.2 to 239.9 °C |  |
| CC(=O)N[C@@H](CSC1=C(C)C(=O)c2cccc(O)c2C1=O)C(=O)O [Compound 10, N-acetyl-S-(8-hydroxy-3-methyl-1,4-dioxo-1,4-dihydronaphthalen-2-yl)-L-cysteine] |  |  |  |  |  |  |  |  |  |  |  |  |  |  |  |  |  |  | > 193 °C (dec.) | inactive |
